From US20130230469A1, “Oral Care Product and Methods of Use and Manufacture Thereof” (COLGATE-PALMOLIVE COMPANY, priority 2010, published 2013) come the findings set out here.

This experiment deals with bacteria/yeast and mold. The experiment in a line: Antimicrobial Preservation Effectiveness Test (micro robustness), double challenge test. The conditions noted are these: for microbial control: preservative in mouthwash formulation, separately or in combination. The class given is cell-based. As to the method:
The Antimicrobial Preservation Effectiveness Test is used to determine the antimicrobial preservation effectiveness of water-based product formulations by means of a double challenge test. Products are developed to withstand microbial challenges introduced by normal consumer use. The test is run on an aged sample (13 weeks, 40° C.). The test uses two pools of microorganisms: bacteria/yeast and mold. The product is challenged at a 1% level at day 0 and at day 7. Reduction of the inoculum is monitored over a 28 day period. The following are the acceptance criteria for mouth wash formulas. • Bacteria and Yeast must show a 99.9% reduction (3 logs) of the bacterial inoculum as determined by plate count on day 7 following each inoculation. No increase after day 7 of the second inoculation and for the remainder of the test within normal variation of the data. • Mold must show a 90.0% reduction (1 log) of the mold inoculum as determined by the plate count on day 14 following the second inoculation (day 21). No increase from day 14 to day 21 of the second inoculation of the test within normal variation of the data.

Regarding `OCc1ccccc1` [Benzyl alcohol, benzyl alcohol], the microbial control result is “acceptable microbial control”.

`CCCCCCCC(=O)OCC(O)CO` (stereo not shown) [Lexgard/gmcy, glycerol monocaprylate]: the microbial control result is reported as “acceptable microbial control”.

For `Cn1sccc1=O` [MIT, methylisothiazolinone], the microbial control result is on record as “acceptable microbial control”. For the same compound, the antimicrobial efficacy result (amount reduced to 0.001%) is given as “retaining antimicrobial efficacy”.
